The IC50 is the concentration at which inhibition is half-maximal. One may read the Ki as the dissociation constant of the complex between target and ligand, obtained from inhibition or displacement.

For one data set, the target named is T1, CYP450 3A4 (Homo sapiens, UniProt P08684).
T1 construct: mediated by CYP450 3A4 in human liver microsomes; from tissue; host or cells: human liver microsomes
The data set is described as follows: In vitro inhibition of CYP3A4: testosterone 6β-hydroxylation in human liver microsomes. The format is biochemical. For orientation: Microsomes from liver hold many membrane-bound enzymes, among them those of drug oxidation.

The next data set relates to Caco-2 monolayers. The experiment in a line: Bi-directional protease inhibitor transport across Caco-2 monolayers (efflux ratio). It counts as in vitro ADME. As to conditions: Caco-2, 100 μM. The source says:
(§1) The transport of experimental protease inhibitors was studied in Caco-2 monolayers grown to confluency.
On the technique in general: Caco-2 monolayers are a common model of the intestinal barrier.

Data set [1] is classed as in vivo, NZW rabbits.
For a further data set, the system named is wild-type HIV-1. As to conditions: disclosed in WO 02/092595; cited from earlier work.
For data set [2], the system named is large panel of viruses resistant to currently known PIs. As to conditions: disclosed in WO 02/092595; cited from earlier work.
Data set [3] in a line: Bi-directional protease inhibitor transport across Caco-2 monolayers (efflux ratio). The format is in vitro ADME. The settings on record: human, Caco-2, control (no inhibitor), 90 min.
Source text: as §1

Data set [4] can be described thus: Phase I trial: effect of compound A on single dose pharmacokinetics of saquinavir in healthy subjects. The settings on record: human, in vivo, 1000 mg. The protocol:
[drawing 12] was used in a Phase I, open-label, randomized trial in healthy subjects to investigate the steady state pharmacokinetics of compound A, and its effect on the single dose pharmacokinetics of the protease inhibitor saquinavir. Three panels of 8 healthy subjects took a single dose of 1000 mg saquinavir alone, and while taking compound A. The pharmacokinetics of the two intakes of saquinavir was compared. On Day 1 in all panels, all subjects received a single dose of 1000 mg saquinavir. From Day 4 to Day 10, one group of healthy volunteers (Panel 1) received 60 mg compound A b.i.d., one group received 160 mg compound A b.i.d. (Panel 2) and one group took 400 mg compound A b.i.d. (Panel 3). On Day 9, all subjects took a single dose of 1000 mg saquinavir simultaneously with compound A. Full pharmacokinetic profiles of compound A were determined on Day 4, Day 8 and Day 9. Full pharmacokinetic profiles of saquinavir were determined on Day 1 and on Day 9.

Read-outs that look alike come from different tables or passages of the source.

T1 sequence (P08684 whole entry): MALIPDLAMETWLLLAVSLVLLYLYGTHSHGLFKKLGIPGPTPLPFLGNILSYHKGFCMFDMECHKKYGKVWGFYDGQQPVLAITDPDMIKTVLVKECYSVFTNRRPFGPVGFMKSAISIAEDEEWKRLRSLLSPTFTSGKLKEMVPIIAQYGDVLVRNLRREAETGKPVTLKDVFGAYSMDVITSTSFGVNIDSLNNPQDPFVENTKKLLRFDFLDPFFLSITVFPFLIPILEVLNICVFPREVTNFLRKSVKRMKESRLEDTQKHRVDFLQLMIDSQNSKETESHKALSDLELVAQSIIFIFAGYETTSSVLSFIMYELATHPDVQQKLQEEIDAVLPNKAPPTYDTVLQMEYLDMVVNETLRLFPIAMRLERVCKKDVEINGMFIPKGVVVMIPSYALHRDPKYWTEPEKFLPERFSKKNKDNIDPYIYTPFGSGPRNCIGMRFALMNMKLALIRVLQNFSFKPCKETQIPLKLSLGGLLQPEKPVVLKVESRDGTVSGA

`CC(C)CN(C[C@@H](O)[C@H](Cc1ccccc1)NC(=O)OCc1cncs1)S(=O)(=O)c1ccc2nc(N)oc2c1` [Compound A, 5-thiazolylmethyl[(1S,2R)-3[[(2-amino-6-benzoxazolyl)sulfonyl]-(2-methylpropyl)amino]-2-hydroxy-1-(phenylmethyl)propyl]carbamate]: at CYP450 3A4 (testosterone 6β-hydroxylation, read-out: IC50 of CYP3A4 mediated metabolism), the IC50 lay in the range of 0.025 to 0.1 µM. For the same molecule, at CYP450 3A4 (testosterone metabolism, non-competitive inhibition model, read-out: inhibition constant Ki of CYP3A4 inhibition), the Ki is 0.065 µM. In addition, the “effect on transport polarity of protease inhibitors (Pgp efflux)” value with Caco-2 monolayers was “significantly reduce the transport polarity”. In addition, the “effect on plasma level of darunavir in rabbits” value in data set [1] is listed as “increase”. Further, in the data set with wild-type HIV-1, the “in vitro activity against wild-type HIV-1” value is on record as “has in vitro activity”. Further, the “activity against a large panel of viruses resistant to currently known PIs” value in data set [2] was “has also activity”.
As for `CC(C)CN(C[C@@H](O)[C@H](Cc1ccccc1)NC(=O)O[C@H]1CO[C@H]2OCC[C@H]21)S(=O)(=O)c1ccc2nc(NCCN3CCCC3)sc2c1` [Compound B], the efflux ratio at 90 min, 30 μM in data set [3] (compound B 30 μM, read-out: efflux ratio (ER) of compound B) worked out at 171.
With `CCN1CCC[C@@H]1CNc1nc2ccc(S(=O)(=O)N(CC(C)C)C[C@@H](O)[C@H](Cc3ccccc3)NC(=O)O[C@H]3CO[C@H]4OCC[C@H]43)cc2s1` [Compound C], in data set [3] (compound C 30 μM, read-out: efflux ratio (ER) of compound C), the efflux ratio at 90 min, 30 μM turned out to be 119.
With `CC(C)CN(C[C@H](O)[C@@H](Cc1ccccc1)NC(=O)OCc1cncs1)S(=O)(=O)c1ccc2nc(N)oc2c1` [Compound E, 5-thiazolylmethyl[(1R,2S)-3[[(2-amino-6-benzoxazolyl)sulfonyl](2-methylpropyl)amino]-2-hydroxy-1-(phenylmethyl)propyl]carbamate], in data set [1], the “effect on plasma level of darunavir in rabbits” value was “increase”.
For `CC(C)(C)NC(=O)[C@@H]1C[C@@H]2CCCC[C@@H]2CN1C[C@@H](O)[C@H](Cc1ccccc1)NC(=O)[C@H](CC(N)=O)NC(=O)c1ccc2ccccc2n1` [saquinavir], the tmax of saquinavir in data set [4] is listed as 5.0 (2.0-6.0) h. Also, in data set [4] (AUClast of saquinavir), the AUC(0-t) worked out at 0.515 ± 0.306 µg·h/mL. In data set [4] (Cmax of saquinavir), this molecule showed a Cmax of 0.117 ± 0.0777 µg/mL. Also, the Tmax in data set [4] (tmax of saquinavir) came to 4.5 h.

The values above are taken from patent US8557854B2, “Use of a sulfonamide compound for improving the pharmacokinetics of a drug” (Janssen R&D Ireland, priority 2005, dated 2013).
